In test [1] the target is T1, dDATmfc (Drosophila melanogaster, UniProt Q7K4Y6, DEL162-202/DEL602-606/INS607VPRG/L415A/V74A). It is filed as binding.
Test [2] concerns the target T1, dDATmfc. The note with it: HEK293S cells; 14C-DA 0.3–60 μM; s.e.m.
The next test has as its target dDATmfc sub^B (Drosophila melanogaster, UniProt Q7K4Y6, D121G/DEL162-202/DEL602-606/INS607VPRG/L415A/S426M/V74A). It is filed as binding.

Each structure is given as a SMILES string.

Turning to `COC(=O)[C@H]1[C@@H](OC(=O)c2ccccc2)C[C@@H]2CC[C@H]1N2C` [cocaine], the affinity on dDATmfc [1] corresponds to a Ki of 33 ± 3 µM.
As for `NCCc1ccc(O)c(O)c1` [dopamine], on dDATmfc [2], the “Vmax of DA transport by dDATmfc” value is reported as 2.4 ± 0.2 pmol/min/10^6 cells.
As for `NCCc1ccc(Cl)c(Cl)c1` [DCP, 3,4-dichlorophenethylamine], the Ki (as a rule, the equilibrium dissociation constant of an inhibitor or competing ligand from its target) at dDATmfc sub^B is 0.267 ± 0.02 µM.

These data come from article PMC4469479 (Nature, 2015).
